Assay results as given in ChEMBL document CHEMBL1909046, “DrugMatrix in vitro pharmacology data”.

How the values were obtained:
[1] = DRUGMATRIX: Atrial Natriuretic Factor (ANF) radioligand binding (ligand: [125I] ANF (rat)); format: cell membranes, Cavia porcellus, Dunkin-Hartley, Adrenal gland, Membrane; conditions: Not Active = under 50% inhibition at 10 µM
[2] = biological target: T1, Calcitonin receptor (Homo sapiens, UniProt P30988); format: cell membranes, Membrane; conditions: t47d; further: in other assays of this panel Not Active means under 50% inhibition at 10 µM
T1 sequence (P30988 whole entry): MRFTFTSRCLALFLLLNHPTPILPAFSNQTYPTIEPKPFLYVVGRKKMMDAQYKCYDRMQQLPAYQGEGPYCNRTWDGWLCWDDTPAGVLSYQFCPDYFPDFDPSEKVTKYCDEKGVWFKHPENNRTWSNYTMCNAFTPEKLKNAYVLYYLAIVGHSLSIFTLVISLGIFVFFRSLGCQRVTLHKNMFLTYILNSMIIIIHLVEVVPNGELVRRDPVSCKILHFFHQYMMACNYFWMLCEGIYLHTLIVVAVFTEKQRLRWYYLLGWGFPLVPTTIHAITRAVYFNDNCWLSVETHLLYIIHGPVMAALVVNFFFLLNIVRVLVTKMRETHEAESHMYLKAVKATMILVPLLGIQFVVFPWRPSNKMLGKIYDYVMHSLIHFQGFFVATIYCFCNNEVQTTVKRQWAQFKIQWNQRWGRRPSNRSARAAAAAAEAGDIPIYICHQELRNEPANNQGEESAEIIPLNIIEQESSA

[3] = DRUGMATRIX: GABAA, Flunitrazepam, Central radioligand binding (ligand: [3H] Flunitrazepam); format: cell membranes, Rattus norvegicus, Wistar, Brain, Membrane; conditions: Not Active = under 50% inhibition at 10 µM
[4] = biological target: T2, Vasoactive intestinal polypeptide receptor 1 (Homo sapiens, UniProt P32241); format: cell membranes, Membrane; conditions: ht-29; further: in other assays of this panel Not Active means under 50% inhibition at 10 µM
T2 sequence (P32241 whole entry): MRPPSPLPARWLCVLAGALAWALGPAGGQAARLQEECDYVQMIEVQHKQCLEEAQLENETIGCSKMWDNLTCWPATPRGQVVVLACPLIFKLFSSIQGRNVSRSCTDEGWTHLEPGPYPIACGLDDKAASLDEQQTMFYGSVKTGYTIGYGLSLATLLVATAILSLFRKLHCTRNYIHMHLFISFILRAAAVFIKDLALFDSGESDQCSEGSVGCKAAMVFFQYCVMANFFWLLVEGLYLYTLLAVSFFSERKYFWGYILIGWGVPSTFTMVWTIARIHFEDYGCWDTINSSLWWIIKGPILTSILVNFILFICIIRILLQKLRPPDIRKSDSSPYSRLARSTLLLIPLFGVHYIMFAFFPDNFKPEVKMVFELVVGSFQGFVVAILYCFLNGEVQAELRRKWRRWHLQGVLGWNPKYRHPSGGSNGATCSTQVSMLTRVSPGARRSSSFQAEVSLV

[5] = biological target: T3, Adenosine receptor A1 (Homo sapiens, UniProt P30542); format: cell membranes, CHO, Membrane;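 further: radioligand binding assay at the adenosine A1 receptor, with DPCPX serving as the labelled ligand; in other assays of this panel Not Active means under 50% inhibition at 10 µM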
T3 sequence (P30542 whole entry): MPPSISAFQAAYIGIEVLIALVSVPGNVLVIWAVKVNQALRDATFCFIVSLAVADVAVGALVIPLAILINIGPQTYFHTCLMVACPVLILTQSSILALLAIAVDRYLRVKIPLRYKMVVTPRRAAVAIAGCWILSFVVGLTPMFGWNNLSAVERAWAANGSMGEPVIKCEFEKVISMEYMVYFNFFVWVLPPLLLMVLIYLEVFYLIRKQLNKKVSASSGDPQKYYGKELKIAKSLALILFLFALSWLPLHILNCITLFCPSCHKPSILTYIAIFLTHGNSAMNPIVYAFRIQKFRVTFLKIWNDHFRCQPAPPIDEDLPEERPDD

[6] = biological target: Matrix metalloproteinase-9 (Homo sapiens, UniProt P14780); format: cell-based;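 further: inhibition of isolated MMP-9 enzyme activity toward a synthetic peptide substrate, from the DrugMatrix protease screening panel; in other assays of this panel Not Active means under 50% inhibition at 10 µM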
Matrix metalloproteinase-9, sequence (P14780 whole entry): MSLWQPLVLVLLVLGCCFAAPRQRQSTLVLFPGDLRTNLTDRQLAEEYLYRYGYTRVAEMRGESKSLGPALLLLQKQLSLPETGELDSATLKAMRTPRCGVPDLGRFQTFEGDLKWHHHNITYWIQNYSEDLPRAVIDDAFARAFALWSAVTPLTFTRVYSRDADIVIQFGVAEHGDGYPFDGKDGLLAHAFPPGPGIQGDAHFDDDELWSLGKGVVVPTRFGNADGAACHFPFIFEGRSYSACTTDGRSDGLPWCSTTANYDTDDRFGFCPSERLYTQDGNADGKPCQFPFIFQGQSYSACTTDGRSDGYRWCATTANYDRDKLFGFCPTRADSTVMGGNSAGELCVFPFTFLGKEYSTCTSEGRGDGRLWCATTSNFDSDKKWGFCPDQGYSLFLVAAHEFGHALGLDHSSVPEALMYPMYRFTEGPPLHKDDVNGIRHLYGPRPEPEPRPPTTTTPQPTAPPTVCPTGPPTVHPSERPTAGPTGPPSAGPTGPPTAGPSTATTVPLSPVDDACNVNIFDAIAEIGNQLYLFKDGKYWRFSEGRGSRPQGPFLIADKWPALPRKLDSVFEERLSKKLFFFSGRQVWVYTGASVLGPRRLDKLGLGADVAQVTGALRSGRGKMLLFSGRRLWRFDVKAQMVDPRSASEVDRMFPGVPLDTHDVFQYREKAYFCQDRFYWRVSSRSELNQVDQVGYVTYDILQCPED

[7] = biological target: 5-hydroxytryptamine receptor 4 (Cavia porcellus, UniProt O70528); format: cell membranes, Dunkin-Hartley, Striatum, Membrane; further: in other assays of this panel Not Active means under 50% inhibition at 10 µM
5-hydroxytryptamine receptor 4, sequence (O70528 whole entry): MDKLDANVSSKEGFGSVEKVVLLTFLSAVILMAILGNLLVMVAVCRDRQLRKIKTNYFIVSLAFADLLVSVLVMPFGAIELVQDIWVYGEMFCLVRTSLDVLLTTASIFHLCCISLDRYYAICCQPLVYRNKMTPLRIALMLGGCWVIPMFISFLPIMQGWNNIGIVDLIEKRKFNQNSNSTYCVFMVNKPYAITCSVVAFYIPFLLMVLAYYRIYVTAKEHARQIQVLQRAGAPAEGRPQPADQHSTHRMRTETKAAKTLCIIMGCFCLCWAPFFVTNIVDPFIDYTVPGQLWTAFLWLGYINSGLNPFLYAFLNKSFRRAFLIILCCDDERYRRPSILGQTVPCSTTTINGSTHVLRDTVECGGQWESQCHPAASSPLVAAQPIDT

[8] = biological target: T4, Thromboxane-A synthase (Homo sapiens, UniProt P24557); assay: biochemical; format: tissue-based, Platelet
T4 sequence (P24557 whole entry): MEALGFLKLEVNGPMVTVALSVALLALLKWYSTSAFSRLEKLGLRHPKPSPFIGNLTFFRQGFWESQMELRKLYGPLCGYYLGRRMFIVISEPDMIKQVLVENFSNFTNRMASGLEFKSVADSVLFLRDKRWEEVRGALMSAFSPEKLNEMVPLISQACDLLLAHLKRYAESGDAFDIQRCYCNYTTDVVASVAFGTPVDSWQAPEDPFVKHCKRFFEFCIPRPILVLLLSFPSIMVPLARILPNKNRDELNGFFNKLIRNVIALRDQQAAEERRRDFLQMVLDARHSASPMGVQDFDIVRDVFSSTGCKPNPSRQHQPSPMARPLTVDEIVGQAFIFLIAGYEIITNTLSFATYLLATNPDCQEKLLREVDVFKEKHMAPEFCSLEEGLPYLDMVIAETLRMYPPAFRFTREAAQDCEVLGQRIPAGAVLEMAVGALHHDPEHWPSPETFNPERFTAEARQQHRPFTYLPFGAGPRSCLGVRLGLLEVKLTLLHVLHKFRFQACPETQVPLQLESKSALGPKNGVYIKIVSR

[9] = biological target: 5-hydroxytryptamine receptor 6 (Homo sapiens, UniProt P50406); format: cell membranes, HeLa, Membrane; conditions: hela; further: in other assays of this panel Not Active means under 50% inhibition at 10 µM
5-hydroxytryptamine receptor 6, sequence (P50406 whole entry): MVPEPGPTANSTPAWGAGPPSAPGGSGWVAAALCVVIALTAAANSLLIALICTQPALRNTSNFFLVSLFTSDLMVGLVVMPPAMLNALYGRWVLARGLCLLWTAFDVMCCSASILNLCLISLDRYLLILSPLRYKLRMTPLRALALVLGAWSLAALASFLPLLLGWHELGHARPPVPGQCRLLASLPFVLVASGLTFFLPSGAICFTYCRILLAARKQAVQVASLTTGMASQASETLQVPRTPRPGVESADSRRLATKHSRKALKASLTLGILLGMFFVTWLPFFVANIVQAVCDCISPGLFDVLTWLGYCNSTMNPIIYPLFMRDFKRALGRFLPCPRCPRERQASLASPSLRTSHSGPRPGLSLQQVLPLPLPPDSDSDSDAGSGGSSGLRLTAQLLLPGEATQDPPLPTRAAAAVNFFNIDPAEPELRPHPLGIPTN

[10] = biological target: Vascular endothelial growth factor receptor 1 (Homo sapiens, UniProt P17948); format: cell-based; conditions: huvec; further: in other assays of this panel Not Active means under 50% inhibition at 10 µM
Vascular endothelial growth factor receptor 1, sequence (P17948 whole entry): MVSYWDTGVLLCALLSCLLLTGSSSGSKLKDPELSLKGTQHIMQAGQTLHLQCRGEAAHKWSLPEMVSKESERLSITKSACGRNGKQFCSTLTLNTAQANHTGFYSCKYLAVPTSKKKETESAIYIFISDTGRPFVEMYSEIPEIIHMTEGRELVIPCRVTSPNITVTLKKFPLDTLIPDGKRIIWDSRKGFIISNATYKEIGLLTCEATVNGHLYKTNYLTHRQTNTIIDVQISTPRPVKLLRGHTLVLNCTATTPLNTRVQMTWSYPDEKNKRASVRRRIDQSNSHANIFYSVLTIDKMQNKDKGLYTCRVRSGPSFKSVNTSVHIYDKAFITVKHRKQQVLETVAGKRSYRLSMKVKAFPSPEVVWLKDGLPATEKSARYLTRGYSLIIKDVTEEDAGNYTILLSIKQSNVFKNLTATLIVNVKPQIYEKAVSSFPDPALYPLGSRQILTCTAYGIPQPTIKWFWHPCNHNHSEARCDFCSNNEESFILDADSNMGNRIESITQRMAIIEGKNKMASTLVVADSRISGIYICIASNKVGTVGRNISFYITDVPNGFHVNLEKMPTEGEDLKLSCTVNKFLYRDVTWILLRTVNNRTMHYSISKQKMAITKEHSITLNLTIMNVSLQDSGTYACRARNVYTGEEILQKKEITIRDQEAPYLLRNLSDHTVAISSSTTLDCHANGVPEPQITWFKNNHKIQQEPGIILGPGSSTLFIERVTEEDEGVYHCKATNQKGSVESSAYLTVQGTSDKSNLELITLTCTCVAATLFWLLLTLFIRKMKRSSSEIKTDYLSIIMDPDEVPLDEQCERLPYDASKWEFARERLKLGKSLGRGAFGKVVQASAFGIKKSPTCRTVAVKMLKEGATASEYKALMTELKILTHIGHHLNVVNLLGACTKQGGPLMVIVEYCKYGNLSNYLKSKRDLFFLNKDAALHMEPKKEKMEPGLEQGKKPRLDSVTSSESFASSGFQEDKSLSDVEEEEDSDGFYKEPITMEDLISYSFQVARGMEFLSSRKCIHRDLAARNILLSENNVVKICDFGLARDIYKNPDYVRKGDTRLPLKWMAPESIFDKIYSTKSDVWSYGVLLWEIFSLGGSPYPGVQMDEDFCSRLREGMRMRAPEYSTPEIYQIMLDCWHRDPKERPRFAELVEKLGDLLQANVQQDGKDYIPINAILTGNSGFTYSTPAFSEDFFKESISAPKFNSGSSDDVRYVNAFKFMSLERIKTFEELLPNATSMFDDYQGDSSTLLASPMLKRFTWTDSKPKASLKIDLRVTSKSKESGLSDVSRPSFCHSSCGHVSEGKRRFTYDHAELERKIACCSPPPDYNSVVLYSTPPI

[11] = biological target: T5, C-X-C chemokine receptor type 2 (Homo sapiens, UniProt P25025); format: cell membranes, Membrane; conditions: cho-k1; further: in other assays of this panel Not Active means under 50% inhibition at 10 µM
T5 sequence (P25025 whole entry): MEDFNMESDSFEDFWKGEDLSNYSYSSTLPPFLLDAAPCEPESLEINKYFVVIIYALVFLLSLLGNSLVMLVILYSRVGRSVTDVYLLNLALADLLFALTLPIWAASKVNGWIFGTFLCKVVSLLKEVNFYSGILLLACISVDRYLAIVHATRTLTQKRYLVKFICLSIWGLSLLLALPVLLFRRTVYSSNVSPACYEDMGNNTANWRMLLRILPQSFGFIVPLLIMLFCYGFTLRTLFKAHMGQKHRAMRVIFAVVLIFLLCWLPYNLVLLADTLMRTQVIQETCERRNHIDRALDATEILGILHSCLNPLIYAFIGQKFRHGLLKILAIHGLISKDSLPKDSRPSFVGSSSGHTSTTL

[12] = biological target: Cytochrome P450 3A4 (Homo sapiens, UniProt P08684); conditions: bti-tn-5b1-4; further: in other assays of this panel Not Active means under 50% inhibition at 10 µM
Cytochrome P450 3A4, sequence (P08684 whole entry): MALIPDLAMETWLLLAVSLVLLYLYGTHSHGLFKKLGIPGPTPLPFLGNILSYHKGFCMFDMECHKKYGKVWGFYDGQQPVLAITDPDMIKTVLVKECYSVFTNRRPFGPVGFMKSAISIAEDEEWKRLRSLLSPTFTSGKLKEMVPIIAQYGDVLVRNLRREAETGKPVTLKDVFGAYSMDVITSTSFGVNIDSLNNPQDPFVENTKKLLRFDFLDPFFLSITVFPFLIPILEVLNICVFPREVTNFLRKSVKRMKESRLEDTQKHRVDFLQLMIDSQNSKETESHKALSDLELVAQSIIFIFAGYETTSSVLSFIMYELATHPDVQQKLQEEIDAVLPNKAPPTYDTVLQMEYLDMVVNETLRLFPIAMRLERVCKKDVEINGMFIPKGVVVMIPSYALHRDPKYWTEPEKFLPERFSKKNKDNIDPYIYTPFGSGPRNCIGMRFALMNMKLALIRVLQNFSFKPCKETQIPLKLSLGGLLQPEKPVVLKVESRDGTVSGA

[13] = biological target: T6, Leukotriene C4 synthase (Cavia porcellus, UniProt A6XA80); assay: biochemical; format: tissue-based, Lung
T6 sequence (A6XA80 whole entry): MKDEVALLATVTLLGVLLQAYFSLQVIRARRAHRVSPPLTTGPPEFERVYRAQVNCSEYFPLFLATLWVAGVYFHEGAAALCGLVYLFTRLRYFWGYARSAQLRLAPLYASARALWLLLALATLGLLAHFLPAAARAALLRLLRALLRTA

Structure (SMILES)	IC50 [1]	Ki [1]	IC50 [2]	IC50 [3]	Ki [3]	IC50 [4]	IC50 ([5]; read-out: IC50)	Ki ([5]; read-out: Ki)	IC50 [6]	IC50 [7]	IC50 ([8]; read-out: IC50)	IC50 [9]	IC50 [10]	IC50 [11]	IC50 [12]	Ki [12]	IC50 [13]	IC50 ([5]; cho)	IC50 ([8]; platelet)
O=c1cc(-c2ccccc2)oc2c1ccc1ccccc12 [ALPHA-NAPHTHOFLAVONE]	Not Active	Not Active	Not Active	Not Active	Not Active	Not Active	1130 nM	661 nM	Not Active	Not Active	6760 nM	Not Active	Not Active	Not Active	Not Active	Not Active	Not Active		
NCC[C@H](O)C(=O)N[C@@H]1C[C@H](N)[C@@H](O[C@H]2O[C@H](CN)[C@@H](O)[C@H](O)[C@H]2O)[C@H](O)[C@H]1O[C@H]1O[C@H](CO)[C@@H](O)[C@H](N)[C@H]1O [AMIKACIN]	Not Active	Not Active	Not Active	Not Active	Not Active	Not Active			Not Active	Not Active		Not Active	Not Active	Not Active	Not Active	Not Active	Not Active	Not Active	Not Active
CC1(C)S[C@@H]2[C@H](NC(=O)[C@H](N)c3ccc(O)cc3)C(=O)N2[C@H]1C(=O)O [AMOXICILLIN]	Not Active	Not Active	Not Active	Not Active	Not Active	Not Active			Not Active	Not Active		Not Active	Not Active	Not Active	Not Active	Not Active	Not Active	Not Active	Not Active
CCOC(=O)OC(C)OC1=C(C(=O)Nc2ccccn2)N(C)S(=O)(=O)c2ccccc21 (centres undefined) [AMPIROXICAM]	Not Active	Not Active	Not Active	Not Active	Not Active	Not Active			Not Active	Not Active		Not Active	Not Active	Not Active	Not Active	Not Active	Not Active	Not Active	Not Active
N#C[C@H](O[C@@H]1O[C@H](CO[C@@H]2O[C@H](CO)[C@@H](O)[C@H](O)[C@H]2O)[C@@H](O)[C@H](O)[C@H]1O)c1ccccc1 [AMYGDALIN]	Not Active	Not Active	Not Active	Not Active	Not Active	Not Active			Not Active	Not Active		Not Active	Not Active	Not Active	Not Active	Not Active	Not Active	Not Active	Not Active
N=C(N)NCCCCNC(=N)N.O=S(=O)(O)O [ARCAINE SULFATE]	Not Active	Not Active	Not Active	Not Active	Not Active	Not Active			Not Active	Not Active		Not Active	Not Active	Not Active	Not Active	Not Active	Not Active	Not Active	Not Active
C=C1[C@@H]2CCC3[C@@](CC[C@@H]4[C@H](C(=O)O)C[C@@H](O[C@@H]5O[C@H](CO)[C@@H](OS(=O)(=O)[O-])[C@H](OS(=O)(=O)[O-])[C@H]5OC(=O)CC(C)C)C[C@@]34C)(C2)[C@@H]1O.[K+].[K+] (some centres undefined) [ATRACTYLOSIDE]	Not Active	Not Active	Not Active	Not Active	Not Active	Not Active			Not Active	Not Active		Not Active	Not Active	Not Active	Not Active	Not Active	Not Active	Not Active	Not Active
Cn1cnc([N+](=O)[O-])c1Sc1ncnc2nc[nH]c12 [AZATHIOPRINE]	Not Active	Not Active	Not Active	Not Active	Not Active	Not Active			Not Active	Not Active		Not Active	Not Active	Not Active	Not Active	Not Active	Not Active	Not Active	Not Active
